The text below walks through data of patent publication US8592406B2, “Transnasal anticonvulsive pharmaceutical composition comprising poorly soluble anticonvulsant” (SK Biopharmaceuticals Co., Ltd., priority 2008, dated 2013).

Data set [1] in a line: Pharmacokinetic test of lorazepam-containing nasal formulation in rabbit (bioavailability test). The note with it: plasma, other: transnasal, 1.6 mg/kg.
Procedure: Right before this experiment, rabbits (n=3) were weighed, and a mixed solution including 25 mg of ketamine and 4 mg of xylazine was intramuscularly injected to the rabbits per kilogram (Kg) in order to anesthetize the rabbits, and a catheter was fastened to each rabbit to collect blood from rabbits' otic artery. An intravenous injection was performed by administering the mixed solution to the rabbits via the rabbits' otic artery at a dose of 1 mg/kg for approximately 20 seconds. […] Then, each formulation was sprayed to the rabbits using a Pfeiffer nasal spry system.
Blood samples (1 Ml) were collected from the rabbits' otic artery at 0, 2, 5, 10, 20, 30, 45, 60 and 120 minutes after the intravenous injection and transnasal administration of each formulation. Each of the blood samples was centrifuged to separate rabbit plasma, which was stored at −20° C. until is will be used for analysis. In order to analyze the plasma samples, each of the plasma samples (0.5 Ml) was exactly transferred to a 1.5 Ml polypropylene centrifuge tube. […]
In this case, the lorazepam was set to a concentration of 9%, and was administered at a dose of 1.6 mg/kg. […] Each plasma sample pre-treated with acetonitrile was quantified under the following LC/MS/MS conditions. […] The ionization was analyzed in a positive mode using an electrospray ionization (ESI) method, and the ion spray temperature was set to 500° C.
For data set [2] the following is noted: humans, transnasal, Cremophor EL vehicle; cited from earlier work.

What is called bioavailability is dose-corrected exposure relative to a reference, in per cent. High values mean good availability, low ones poor availability. Compound `O=C1Nc2ccc(Cl)cc2C(c2ccccc2Cl)=NC1O` (centres unmarked) [lorazepam] yielded a bioavailability in data set [1] of 35%.
For the compound `CN1C(=O)CN=C(c2ccccc2)c2cc(Cl)ccc21` [diazepam], the “Peak concentration versus intravenous administration” value in data set [2] is recorded as “lower than that observed after the intravenous administration”.
